Results on 13 compounds are retold here after patent US20250115597A1, “TYK2 INHIBITORS AND COMPOSITIONS AND METHODS THEREOF” (LYNK PHARMACEUTICALS CO. LTD., priority 2021, published 2025).

The target in one data set is T1, JAK1-JH2 domain (Homo sapiens, UniProt P23458).
T1 construct: IC50 on JH2 domain activity (nM)
Description: Binding activity test for JH2 domain of JAK1 (Tb-antibody/tracer FRET). The method, then:
Binding Activity Test for […] Domain of JAK1 and TYK2 The compounds are prepared in DMSO for 200× top dose, then serial dilute it with 27-fold for 3 more points. Add 8 μL/well in echo source plate, echo will add 75 nL/well with 3-fold serial dilution for 11 points in assay plate. 75 nL DMSO for high control and low control. […] For low control, add 5 μL/well assay buffer. And then spin down at 1000 rpm and centrifuge for 30 seconds. After enzyme system prepared, add 5 μL of Tb-antibody solution into each wells of assay plate. Spin down at 1000 rpm and centrifuge for 30 sec. After Tb-antibody added, also add 5 μL of tracer into the assay plate. Spin down at 1000 rpm and centrifuge for 30 sec. Incubate for 60 mins at 25° C. firstly and then continue to incubate the plate at 4° C. overnight. Read by envision in FRET mode. The Luminescence value was recorded by a multi-label reader Envision (PerkinElmer).

Data set [1] in a line: Microsomal metabolic stability assay. Type of data set: in vitro ADME. The conditions noted are these: pH 7.4, 0.5 mg/mL protein, 1 μM compound. The essentials: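 Parent loss was tracked by LC/MS/MS at 0, 5, 15, 30 and 45 min, with half-life derived from the ln(% remaining)–time slope. Incubation at 37 °C, pH 7.4 phosphate/EDTA buffer: 0.5 mg/mL microsomes, 1 μM compound, NADPH-regenerated (2 mM).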

The target in data set [2] is T2, Ba/F3-FL-TYK2-P760L cells (Homo sapiens, UniProt P29597, P760L, cells depend on it).
T2 construct: BaF3-FL-T2P760L (nM)
Description: Anti-proliferative assay, Ba/F3-FL-TYK2-P760L cells (Cell-Titer Glo). It is filed as cell-based. Conditions: 72 h, read-out: BaF3-FL-T2P760L IC50. The essentials:
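Compound exposure ran 72 h at 37 °C in 5% CO2 across nine 3-fold concentrations from a 20 μM top dose, added 24 h after seeding 2000 cells/well.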

The target of a further data set is T3, TYK2-JH2 domain (Homo sapiens, UniProt P29597).
T3 construct: IC50 on JH2 domain activity (nM)
Description: Binding activity test for JH2 domain of TYK2 (Tb-antibody/tracer FRET). The conditions noted are these: for JAK1/TYK2 selectivity: ratio JAK1-JH2 IC50 / TYK2-JH2 IC50. An outline of the steps: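 FRET read-out after 60 min at 25° C plus overnight at 4° C; tracer displacement detected via Tb-labelled antibody on the JH2 domain. Dose-response used 11 points at 3-fold dilution.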

Setting [3] is: dog liver microsomes, read-out: Dog LM Clint.
[4] abbreviates: dog liver microsomes, read-out: Dog LM T½.
The mark [5] stands for this setting: human liver microsomes, read-out: Human LM Clint.
Setting [6] is: human liver microsomes, read-out: Human LM T½.
The mark [7] stands for this setting: rat liver microsomes, read-out: Rat LM Clint.
[8] abbreviates: rat liver microsomes, read-out: Rat LM T½.

Read-outs that look alike come from different tables or passages of the source.

T3 sequence (P29597 589-875 limits assumed): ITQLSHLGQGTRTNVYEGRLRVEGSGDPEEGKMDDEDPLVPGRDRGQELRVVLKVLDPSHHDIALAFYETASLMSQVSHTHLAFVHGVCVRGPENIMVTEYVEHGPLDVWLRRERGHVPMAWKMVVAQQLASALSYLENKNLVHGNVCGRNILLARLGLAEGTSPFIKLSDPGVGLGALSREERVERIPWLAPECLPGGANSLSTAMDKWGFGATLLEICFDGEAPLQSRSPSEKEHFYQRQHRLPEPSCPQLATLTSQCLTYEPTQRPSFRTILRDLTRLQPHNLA
T2 sequence (P29597 whole entry P760L): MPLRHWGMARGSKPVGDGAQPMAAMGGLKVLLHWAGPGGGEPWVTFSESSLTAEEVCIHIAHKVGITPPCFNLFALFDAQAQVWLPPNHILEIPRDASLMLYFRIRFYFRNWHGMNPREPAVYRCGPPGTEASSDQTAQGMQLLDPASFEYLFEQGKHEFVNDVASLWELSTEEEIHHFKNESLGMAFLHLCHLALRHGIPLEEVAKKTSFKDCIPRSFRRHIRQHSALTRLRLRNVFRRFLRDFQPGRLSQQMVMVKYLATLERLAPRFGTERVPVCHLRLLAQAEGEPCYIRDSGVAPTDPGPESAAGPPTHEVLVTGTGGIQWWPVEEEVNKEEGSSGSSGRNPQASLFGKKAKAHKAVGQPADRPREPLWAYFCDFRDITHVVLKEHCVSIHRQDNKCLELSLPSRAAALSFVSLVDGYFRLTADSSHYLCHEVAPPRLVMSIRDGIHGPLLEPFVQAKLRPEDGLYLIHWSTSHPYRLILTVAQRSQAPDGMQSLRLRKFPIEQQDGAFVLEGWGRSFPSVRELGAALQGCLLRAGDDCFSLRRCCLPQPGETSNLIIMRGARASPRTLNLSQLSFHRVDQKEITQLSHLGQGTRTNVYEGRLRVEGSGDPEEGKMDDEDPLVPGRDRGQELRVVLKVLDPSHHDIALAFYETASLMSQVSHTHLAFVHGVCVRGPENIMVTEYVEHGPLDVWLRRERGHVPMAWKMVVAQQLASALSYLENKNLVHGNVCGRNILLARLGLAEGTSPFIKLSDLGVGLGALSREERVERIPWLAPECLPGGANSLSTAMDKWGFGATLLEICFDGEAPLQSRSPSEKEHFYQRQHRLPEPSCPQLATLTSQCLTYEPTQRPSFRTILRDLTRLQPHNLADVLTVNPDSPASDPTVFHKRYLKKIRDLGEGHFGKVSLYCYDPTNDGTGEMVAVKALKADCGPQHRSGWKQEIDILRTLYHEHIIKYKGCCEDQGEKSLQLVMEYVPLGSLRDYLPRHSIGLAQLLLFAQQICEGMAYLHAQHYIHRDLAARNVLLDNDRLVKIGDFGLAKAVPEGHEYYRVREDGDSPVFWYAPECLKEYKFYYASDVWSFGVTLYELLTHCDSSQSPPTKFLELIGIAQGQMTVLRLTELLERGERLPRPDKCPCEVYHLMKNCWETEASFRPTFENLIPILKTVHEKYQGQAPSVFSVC
T1 sequence (P23458 583-855 limits assumed): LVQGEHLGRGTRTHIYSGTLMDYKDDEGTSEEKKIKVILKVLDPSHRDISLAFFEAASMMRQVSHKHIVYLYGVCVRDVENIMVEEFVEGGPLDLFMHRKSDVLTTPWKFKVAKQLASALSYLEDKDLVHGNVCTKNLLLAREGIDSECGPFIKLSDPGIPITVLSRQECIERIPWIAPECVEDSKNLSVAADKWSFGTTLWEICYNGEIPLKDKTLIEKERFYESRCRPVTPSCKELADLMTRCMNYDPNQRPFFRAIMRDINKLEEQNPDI

By IC50 is commonly meant the midpoint of a concentration-inhibition curve. As to `[2H]C([2H])([2H])NC(=O)c1cnc(Nc2ccncn2)cc1Nc1ccc2cnn(C([2H])([2H])[2H])c2c1OC` [Example 153, 4-((7-Methoxy-1-(methyl-d3)-1H-indazol-6-yl)amino)-N-(methyl-d3)-6-(pyrimidin-4-ylamino)nicotinamide], the IC50 at JAK1-JH2 domain stood at 15.1 nM; at TYK2-JH2 domain, 0.455 nM. The microsomal CLint at 1 μM is 51.9 µL/min/mg in data set [1] (setting [3]), 50.4 µL/min/mg in data set [1] (setting [5]) and 90.5 µL/min/mg in data set [1] (setting [7]). Moreover, the half-life at 1 μM in data set [1] (setting [4]) turned out to be 26.7 min; in data set [1] (setting [6]), 27.5 min; in data set [1] (setting [8]), 15.3 min. For the same compound, the GI50 in data set [2] was determined as 71.3 nM. Besides, the JAK1/TYK2 selectivity at TYK2-JH2 domain amounted to 33.2.

Take `[2H]C([2H])([2H])NC(=O)c1cnc(Nc2ccc(F)cn2)cc1Nc1ccn2ncc(C#N)c2c1OC` [Example 257, 4-((3-Cyano-4-methoxypyrazolo[1,5-a]pyridin-5-yl)amino)-6-((5-fluoropyridin-2-yl)amino)-N-(methyl-d3)nicotinamide]: the IC50 was 3.18 nM on JAK1-JH2 domain and 0.135 nM on TYK2-JH2 domain. For the same compound, the microsomal CLint at 1 μM was determined as 9.01 µL/min/mg in data set [1] (setting [3]), 9.51 µL/min/mg in data set [1] (setting [5]) and 20.2 µL/min/mg in data set [1] (setting [7]). For the same compound, the values for the half-life at 1 μM in data set [1] (setting [4]), in data set [1] (setting [6]) and in data set [1] (setting [8]) were 154 min, 146 min and 68.5 min, respectively. Moreover, the GI50 in data set [2] amounted to 39.7 nM. For the same compound, the JAK1/TYK2 selectivity on TYK2-JH2 domain stood at 23.5.

`[2H]C([2H])([2H])NC(=O)c1cnc(NC(=O)C2CC2)cc1Nc1ccn2nccc2c1OC` [Example 258, 6-(Cyclopropanecarboxamido)-4-((4-methoxypyrazolo[1,5-a]pyridin-5-yl)amino)-N-(methyl-d3)nicotinamide] returned an IC50 on JAK1-JH2 domain of 14.9 nM. For the same compound, the GI50 in data set [2] was found to be 205 nM. Also, on TYK2-JH2 domain, the IC50 came to 0.834 nM and the JAK1/TYK2 selectivity worked out at 17.9.

With `[2H]C([2H])([2H])NC(=O)c1cnc(NC(=O)C2CC2)cc1Nc1ccc2cnn(CC(N)=O)c2c1OC` [Example 259, 4-((1-(2-Amino-2-oxoethyl)-7-methoxy-1H-indazol-6-yl)amino)-6-(cyclopropanecarboxamido)-N-(methyl-d3)nicotinamide], the figures for the IC50 at JAK1-JH2 domain and at TYK2-JH2 domain were 79.9 nM and 6.29 nM, respectively. The microsomal CLint at 1 μM was determined as 9.24 µL/min/mg in data set [1] (setting [3]), 4.39 µL/min/mg in data set [1] (setting [5]) and 4.7 µL/min/mg in data set [1] (setting [7]). Moreover, the half-life at 1 μM in data set [1] (setting [4]) was 150 min; in data set [1] (setting [6]) it was 316 min; in data set [1] (setting [8]) it was 295 min. The GI50 in data set [2] was above 5000 nM. Moreover, the JAK1/TYK2 selectivity on TYK2-JH2 domain is recorded as 12.7.

As to `[2H]C([2H])([2H])NC(=O)c1cnc(NC(=O)C2CC2)cc1Nc1ncc2ncn(CC)c2c1OC` [Example 260, 6-(Cyclopropanecarboxamido)-4-((1-ethyl-7-methoxy-1H-imidazo[4,5-c]pyridin-6-yl)amino)-N-(methyl-d3)nicotinamide], the figures for the IC50 at JAK1-JH2 domain and at TYK2-JH2 domain were 9.78 nM and 0.124 nM, respectively. Also, in data set [2], the GI50 is 143 nM. The JAK1/TYK2 selectivity at TYK2-JH2 domain is recorded as 78.9.

For `[2H]C([2H])([2H])NC(=O)c1cnc(Nc2ccc(F)cn2)cc1Nc1ncc2cnn(CC)c2c1OC` [Example 263, 4-((1-Ethyl-7-methoxy-1H-pyrazolo[4,3-c]pyridin-6-yl)amino)-6-((5-fluoropyridin-2-yl)amino)-N-(methyl-d3)nicotinamide], the results for the IC50 at JAK1-JH2 domain and at TYK2-JH2 domain were 25.4 nM and 0.29 nM, respectively. Also, the microsomal CLint at 1 μM stood at 97.2 µL/min/mg in data set [1] (setting [3]), 29.2 µL/min/mg in data set [1] (setting [5]) and 40.9 µL/min/mg in data set [1] (setting [7]). Moreover, the values for the half-life at 1 μM in data set [1] (setting [4]), in data set [1] (setting [6]) and in data set [1] (setting [8]) were 14.3 min, 47.5 min and 33.9 min, respectively. In addition, the GI50 in data set [2] was found to be 41.7 nM. Further, the JAK1/TYK2 selectivity on TYK2-JH2 domain stood at 87.4.

For `[2H]C([2H])([2H])NC(=O)c1cnc(Nc2ccn(C)n2)cc1Nc1ncc2cnn(CC)c2c1OC` [Example 264, 4-((1-Ethyl-7-methoxy-1H-pyrazolo[4,3-c]pyridin-6-yl)amino)-N-(methyl-d3)-6-((1-methyl-1H-pyrazol-3-yl)amino)nicotinamide], the IC50 at JAK1-JH2 domain came to 73.7 nM; at TYK2-JH2 domain, 1.77 nM. Moreover, the results for the microsomal CLint at 1 μM in data set [1] (setting [3]), in data set [1] (setting [5]) and in data set [1] (setting [7]) were 16.9 µL/min/mg, 12.1 µL/min/mg and 15.4 µL/min/mg, respectively. Moreover, the half-life at 1 μM was 82 min in data set [1] (setting [4]), 115 min in data set [1] (setting [6]) and 90 min in data set [1] (setting [8]). Also, the GI50 in data set [2] turned out to be 278 nM. In addition, the JAK1/TYK2 selectivity at TYK2-JH2 domain stood at 41.4.

In turn, `[2H]C([2H])([2H])NC(=O)c1cnc(NC(=O)C2CC2)cc1Nc1ncc2cnn(C3CC3)c2c1OC` [Example 267, 6-(Cyclopropanecarboxamido)-4-((1-cyclopropyl-7-methoxy-1H-pyrazolo[4,3-c]pyridin-6-yl)amino)-N-(methyl-d3)nicotinamide] displayed an IC50 at JAK1-JH2 domain of 9.25 nM. Further, in data set [2], the GI50 was 227 nM. Further, on TYK2-JH2 domain, the half-maximal inhibitory concentration (IC50) was determined as 0.181 nM and the JAK1/TYK2 selectivity is on record as 51.1.

With `[2H]C([2H])([2H])NC(=O)c1cnc(Nc2ccc(N3CCOCC3)cn2)cc1Nc1ccc2cnn(CC)c2c1OC` [Example 273, 4-((1-Ethyl-7-methoxy-1H-indazol-6-yl)amino)-N-(methyl-d3)-6-((5-morpholinopyridin-2-yl)amino)nicotinamide], the IC50 on JAK1-JH2 domain was found to be 2.68 nM. The GI50 in data set [2] was found to be 28.4 nM. Also, at TYK2-JH2 domain, the IC50 was 0.166 nM and the JAK1/TYK2 selectivity is recorded as 16.1.

`[2H]C([2H])([2H])NC(=O)c1cnc(NC(=O)C2CC2)cc1Nc1ncc2cnn(CCC(F)(F)F)c2c1OC` [Example 275, 6-(Cyclopropanecarboxamido)-4-((7-methoxy-1-(3,3,3-trifluoropropyl)-1H-pyrazolo[4,3-c]pyridin-6-yl)amino)-N-(methyl-d3)nicotinamide] gave an IC50 on JAK1-JH2 domain of 27 nM. Moreover, the GI50 in data set [2] is 118 nM. On TYK2-JH2 domain, the IC50 is 0.449 nM and the JAK1/TYK2 selectivity is given as 60.2.

On to `[2H]C([2H])([2H])NC(=O)c1cnc(NC(=O)C2CC2)cc1Nc1ncc2cnn(CC(C)(F)F)c2c1OC` [Example 276, 6-(Cyclopropanecarboxamido)-4-((1-(2,2-difluoropropyl)-7-methoxy-1H-pyrazolo[4,3-c]pyridin-6-yl)amino)-N-(methyl-d3)nicotinamide], for which the values for the IC50 on JAK1-JH2 domain and at TYK2-JH2 domain were 110 nM and 0.253 nM, respectively. In addition, the GI50 in data set [2] was 88.2 nM. Also, the JAK1/TYK2 selectivity on TYK2-JH2 domain is 436.1.

With `[2H]C([2H])([2H])NC(=O)c1cnc(Nc2ccc(F)cn2)cc1Nc1ncc2cnn(C([2H])([2H])[2H])c2c1OC` [Example 277, 6-((5-Fluoropyridin-2-yl)amino)-4-((7-methoxy-1-(methyl-d3)-1H-pyrazolo[4,3-c]pyridin-6-yl)amino)-N-(methyl-d3)nicotinamide], the results for the 50% inhibitory concentration (IC50) at JAK1-JH2 domain and on TYK2-JH2 domain were 61.4 nM and 1.11 nM, respectively. For the same compound, the GI50 in data set [2] is 60.2 nM. Moreover, the JAK1/TYK2 selectivity at TYK2-JH2 domain is given as 55.5.

With `[2H]C([2H])([2H])NC(=O)c1cnc(NC(=O)C2CC2)cc1Nc1ccn2ncc(OC)c2c1OC` [Example 278, 6-(Cyclopropanecarboxamido)-4-((3,4-dimethoxypyrazolo[1,5-a]pyridin-5-yl)amino)-N-(methyl-d3)nicotinamide], the figures for the half-maximal inhibitory concentration (IC50) at JAK1-JH2 domain and at TYK2-JH2 domain were 9.63 nM and 0.385 nM, respectively. Further, the GI50 in data set [2] stood at 130 nM. Further, the JAK1/TYK2 selectivity on TYK2-JH2 domain came out at 25.0.
